Results: patent publication US6270780A, “Cosmetic compositions containing resveratrol” (Chesebrough-Pond's USA Co., division of Conopco, priority 1998, dated 2001)
Read-outs that look alike come from different tables or passages of the source.

Tested on: Normal human keratinocytes
Assay: 3H-thymidine incorporation (DNA synthesis) / proliferation of keratinocytes
Assay type: cell-based
From the text: The incorporation of ^3 H-thymidine by cultured cells was used as an assay of cell proliferation (both for ZR75 cells and for keratinocytes). Thymidine is one of four deoxynucleosides which are the monomeric units of DNA. Prior to cell division of a somatic cell, the complete genome of the cell undergoing cell division is replicated. This involves large scale DNA synthesis by the cell and enables both daughter cells to receive identical copies of the genetic material. When ^3 H-thymidine is included in the culture media of cells which are synthesizing DNA in preparation for cell division then the labeled thymidine is incorporated into the newly synthesized DNA. The extent of incorporation of ^3 H-thymidine into a population of cells is proportional to the rate of DNA synthesis by this population of cells and therefore an indication of their cellular proliferation.
1. Normal human keratinocytes isolated from neonatal foreskins by trypsin treatment were grown in Dulbecco's modified Eagle's medium (DME)/5% fetal calf serum in the presence of mitomycin C treated 3T3 mouse fibroblasts for establishing dividing keratinocyte colonies. Keratinocytes were grown under the above condition until their third passage.
2. For the experiments, third passage keratinocytes were plated into a serum-free keratinocyte growth medium (KGM; obtained from Clonetics, San Diego, Calif.) containing 0.09 mM calcium. About 30,000 cells were plated into each well of 6 well cell culture plates and grown for 5 days, until the cells reach about 40% confluence.
3. Medium was changed to fresh medium (KBM; obtained from Clonetics) and resveratrol at various concentrations as indicated in Table 2 was added to the medium from a DMSO (Dimethylsulfoxide) stock solution. The final DMSO concentration in the cultures was 0.1%. Control cultures received no resveratrol but were dosed with 0.1% DMSO. Each concentration was tested in three separate wells. After four hours, 1 μCi of ^3 H-thymidine (Amersham Corp., Sp activity 40 Ci/mmol) was added to 1 ml of medium in each well. The cells were incubated for 2 hours. The amount of ^3 H-thymidine associated with the cellular DNA of keratinocytes was assessed as described below.
4. The medium was aspirated, and the wells washed with 1 ml PBS. The DNA and proteins of the cells in the plate were then precipitated by adding 1 ml of ice-cold 10% TCA. The plates were left on ice for 30 minutes to complete the precipitation process. TCA was then aspirated and each well was then washed 4 times with 5% TCA. The cells in the wells were dissolved in 0.5 ml of […] sodium hydroxide. 200 μl was then transferred to a scintillation vial for assessing thymidine incorporation and 25 μl was used for a protein assay using BCA protein assay reagent as described below. 5 ml of a scintillation fluid (Scintiverse) was added to the rest of the solution in the vial, and the vials were counted in a scintillation counter to determine the amount of radioactivity in each vial.
BCA (Bicinchoninic Acid)--Protein Assay
25 μl of cell suspension were placed in a 96 well plate. Standards of BSA (bovine serum albumin) in 0.1N Sodium Hydroxide were also pipetted in triplicate in the same 96 well plate. Pierce BCA protein assay reagent was added (200 μl/well) and plate was incubated for 2 hours at room temperature. Absorbance was read at a wavelength of 570 nm on a Dynatech MR7000 plate reader.
The DNA synthesis rate was then calculated as cpm ^3 H-thymidine incorporated into total cellular DNA/μg of cell protein for each individual well. Mean and standard deviation for each group were also calculated. These numbers were also expressed as percent of control wells. Each data point is expressed as mean of triplicate wells±standard deviation.
The results that were obtained are summarized in Table 2. p values of less than […] were considered to indicate statistical significance.
Example 2 was repeated at various additional concentrations of resveratrol.

With Oc1ccc(/C=C/c2cc(O)cc(O)c2)cc1 [Resveratrol, 3,4'5-stilbenetriol] the inhibition at 50 µM (Homo sapiens, Keratinocyte, Table 2 Experiment 1, 50 μM) was 98%, the inhibition at 0.78 µM (Homo sapiens, Keratinocyte, Table 2 Experiment 2, 0.78 μM) was 33% and the inhibition at 1.56 µM (Homo sapiens, Keratinocyte, Table 2 Experiment 2, 1.56 μM, read-out: % inhibition (DNA synthesis)) was 48%. For the same compound, the inhibition at 3.12 µM (Homo sapiens, Keratinocyte, Table 2 Experiment 2, 3.12 μM) was 70%, the inhibition at 6.25 µM (Homo sapiens, Keratinocyte, Table 2 Experiment 2, 6.25 μM) was 86% and the inhibition at 12.5 µM (Homo sapiens, Keratinocyte, Table 2 Experiment 2, 12.5 μM) was 94%. The inhibition at 25 µM (Homo sapiens, Keratinocyte, Table 2 Experiment 2, 25 μM) was 97%, the inhibition at 50 µM (Homo sapiens, Keratinocyte, Table 2 Experiment 2, 50 μM) was 97% and the inhibition at 0.1 µM (Homo sapiens, Keratinocyte, Table 3, 0.1 μM) was 5%. For the same compound, the inhibition at 0.2 µM (Homo sapiens, Keratinocyte, Table 3, 0.2 μM) was 12%, the inhibition at 0.3 µM (Homo sapiens, Keratinocyte, Table 3, 0.3 μM) was 7% and the inhibition at 0.4 µM (Homo sapiens, Keratinocyte, Table 3, 0.4 μM) was 14%. The inhibition at 0.6 µM (Homo sapiens, Keratinocyte, Table 3, 0.6 μM) was 6%, the inhibition at 0.8 µM (Homo sapiens, Keratinocyte, Table 3, 0.8 μM) was 30% and the inhibition at 1 µM (Homo sapiens, Keratinocyte, Table 3, 1.0 μM) was 40%. The inhibition at 2 µM (Homo sapiens, Keratinocyte, Table 3, 2.0 μM) was 59%, the inhibition at 1.56 µM (Homo sapiens, Keratinocyte, 1.56 μM, read-out: reduced keratinocyte proliferation) was about 50% and the “DNA synthesis (cpm/μg protein)” value (Table 2 Experiment 1, 50 μM) was 0.62 ± 0.09 cpm/μg protein. The “DNA synthesis (cpm/μg protein)” value (Table 2 Experiment 2, 0.78 μM) was 11.57 ± 1.7 cpm/μg protein, the “DNA synthesis (cpm/μg protein)” value (Table 2 Experiment 2, 1.56 μM) was 8.89 ± 1.12 cpm/μg protein and the “DNA synthesis (cpm/μg protein)” value (Table 2 Experiment 2, 3.12 μM) was 5.11 ± 0.27 cpm/μg protein. For the same compound, the “DNA synthesis (cpm/μg protein)” value (Table 2 Experiment 2, 6.25 μM) was 2.45 ± 0.56 cpm/μg protein, the “DNA synthesis (cpm/μg protein)” value (Table 2 Experiment 2, 12.5 μM) was 1.07 ± 0.11 cpm/μg protein and the “DNA synthesis (cpm/μg protein)” value (Table 2 Experiment 2, 25 μM) was 0.58 ± 0.05 cpm/μg protein. The “DNA synthesis (cpm/μg protein)” value (Table 2 Experiment 2, 50 μM) was 0.44 ± 0.12 cpm/μg protein, the “DNA synthesis (cpm/μg protein)” value (Table 3, 0.1 μM) was 60.4 ± 4.1 cpm/μg protein and the “DNA synthesis (cpm/μg protein)” value (Table 3, 0.2 μM) was 56.3 ± 3.0 cpm/μg protein. For the same compound, the “DNA synthesis (cpm/μg protein)” value (Table 3, 0.3 μM) was 58.8 ± 0.4 cpm/μg protein, the “DNA synthesis (cpm/μg protein)” value (Table 3, 0.4 μM) was 54.2 ± 1.2 cpm/μg protein and the “DNA synthesis (cpm/μg protein)” value (Table 3, 0.6 μM) was 59.3 ± 5.5 cpm/μg protein. For the same compound, the “DNA synthesis (cpm/μg protein)” value (Table 3, 0.8 μM) was 44.4 ± 2.6 cpm/μg protein, the “DNA synthesis (cpm/μg protein)” value (Table 3, 1.0 μM) was 37.7 ± 4.0 cpm/μg protein and the “DNA synthesis (cpm/μg protein)” value (Table 3, 2.0 μM) was 25.7 ± 2.4 cpm/μg protein. For the same compound, the “inhibition of DNA synthesis” value (both experiments, 50 μM) was “inhibited DNA synthesis completely”, the “DNA synthesis of keratinocytes” value (concentrations as low as 1.56 μM) was “decreased DNA synthesis of keratinocytes significantly” and the reducing keratinocyte proliferation (concentrations lower than 0.8 μm (0.000018 wt. %)) was “not effective at reducing keratinocyte proliferation”.
